Legend:
cotton = assay: Postemergent control of plant species; type: in vivo, Gossypium spp.; settings: Gossypium hirsutum, post-emergence, 336 h, read-out: percent postemergent control
Procedure, shortened: (§1)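 Foliar spray, 2-4 leaf stage, greenhouse. Formulation: acetone solution (2x final conc.) mixed 1:1 with water + 0.1% surface active agent. ~2 wk hold, watered as needed. Readout = % growth reduction vs untreated same-species controls.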

rape = assay: Postemergent control of plant species; type: in vivo, Brassica napus; settings: Brassica napus, post-emergence, 336 h, read-out: percent postemergent control
Procedure, shortened: as §1

soybean = assay: Postemergent control of plant species; type: in vivo, Glycine max.; settings: Glycine max, post-emergence, 336 h, read-out: percent postemergent control
Procedure, shortened: as §1

sugar beet = assay: Postemergent control of plant species; type: in vivo, Beta saccharifera; settings: Beta vulgaris, post-emergence, 336 h, read-out: percent postemergent control
Procedure, shortened: as §1

cocklebur = assay: Postemergent control of plant species; type: in vivo, Xanthium spp.; settings: Xanthium strumarium, post-emergence, 336 h, read-out: percent postemergent control
Procedure, shortened: as §1

jimsonweed = assay: Postemergent control of plant species; type: in vivo, Datura stramonium; settings: Datura stramonium, post-emergence, 336 h, read-out: percent postemergent control
Procedure, shortened: as §1

annual morning glory = assay: Postemergent control of plant species; type: in vivo, Ipomoea spp.; settings: Ipomoea, post-emergence, 336 h, read-out: percent postemergent control
Procedure, shortened: as §1

pigweed = assay: Postemergent control of plant species; type: in vivo, Amaranthus spp.; settings: Amaranthus retroflexus, post-emergence, 336 h, read-out: percent postemergent control
Procedure, shortened: as §1

velvetleaf = assay: Postemergent control of plant species; type: in vivo, Abutilon theophrasti; settings: Abutilon theophrasti, post-emergence, 336 h, read-out: percent postemergent control
Procedure, shortened: as §1

corn = assay: Postemergent control of plant species; type: in vivo, Zea mays; settings: Zea mays, post-emergence, 336 h, read-out: percent postemergent control
Procedure, shortened: as §1

rice [1] = assay: Postemergent control of plant species; type: in vivo, Oryza sativa; settings: Oryza sativa, post-emergence, 336 h, read-out: percent postemergent control
Procedure, shortened: as §1

sorghum = assay: Postemergent control of plant species; type: in vivo, Sorghum vulgare; settings: Sorghum, post-emergence, 336 h, read-out: percent postemergent control
Procedure, shortened: as §1

wheat = assay: Postemergent control of plant species; type: in vivo, Triticum aestivum; settings: Triticum aestivum, post-emergence, 336 h, read-out: percent postemergent control
Procedure, shortened: as §1

barnyardgrass [2] = assay: Postemergent control of plant species; type: in vivo, Echinochloa crusgalli; settings: Echinochloa crus-galli, post-emergence, 336 h, read-out: percent postemergent control
Procedure, shortened: as §1

crabgrass = assay: Postemergent control of plant species; type: in vivo, Digitaria spp.; settings: Digitaria sanguinalis, post-emergence, 336 h, read-out: percent postemergent control
Procedure, shortened: as §1

yellow foxtail = assay: Postemergent control of plant species; type: in vivo, Setaria lutescens; settings: Setaria, post-emergence, 336 h, read-out: percent postemergent control
Procedure, shortened: as §1

johnson grass = assay: Postemergent control of plant species; type: in vivo, Sorghum halepense; settings: Sorghum halepense, post-emergence, 336 h, read-out: percent postemergent control
Procedure, shortened: as §1

wild oats = assay: Postemergent control of plant species; type: in vivo, Avena fatua; settings: Avena fatua, post-emergence, 336 h, read-out: percent postemergent control
Procedure, shortened: as §1

yellow nutsedge [3] = assay: Postemergent control of plant species; type: in vivo, Cyperus esculentus; settings: Cyperus, post-emergence, 336 h, read-out: percent postemergent control
Procedure, shortened: as §1

rice [4] = assay: Control of aquatic plant species (paddy water); type: in vivo, Oryza sativa; settings: Oryza sativa, 216 h; 2.0 Kg/Ha, nine days; read-out: Percent control
Procedure, shortened: (§2)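 1-2 inch plants transplanted into ~2 in soil, flooded ~1 in deep; acetone concentrate injected into floodwater, volume adjusted for target concentration; % control scored at 9 days.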

barnyardgrass [5] = assay: Control of aquatic plant species (paddy water); type: in vivo, Echinochloa crusgalli; settings: Echinochloa crus-galli, 216 h; 2.0 Kg/Ha, nine days; read-out: Percent control
Description: In testing for such utility, the plant species to be tested were transplanted into 16 oz. containers into about 2 inches of soil when they were in the 1-2 inch stage and then flooded to a depth of about 1 inch. An acetone concentrate of the chemical to be tested was then injected into the paddy water, the volume injected being varied as desired to provide the desired concentration. Percent control was evaluated nine days after application.

sprangletop = assay: Control of aquatic plant species (paddy water); type: in vivo, Leptochloa filiformis; settings: Leptochloa filiformis, 216 h; 2.0 Kg/Ha, nine days; read-out: Percent control
Procedure, shortened: as §2

yellow nutsedge [6] = assay: Control of aquatic plant species (paddy water); type: in vivo, Cyperus esculentus; settings: Cyperus, 216 h; 2.0 Kg/Ha, nine days; read-out: Percent control
Procedure, shortened: as §2

[7] = tested on: nitrification of ammonium nitrogen; assay: Suppression of nitrification of ammonium nitrogen in soil; settings: 27° C.
Procedure, shortened: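 Soil (20 g) moistened to its 1/3 bar tension value, mixed with test chemical and incubated sealed for two weeks at 27° C. Nitrate extracted with ammonium sulfate solution and measured by nitrate-specific ion electrode; value given as % NH4-N remaining.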

| SMILES | plant injury at 500 ppm (cotton) | plant injury at 500 ppm (rape) | plant injury at 500 ppm (soybean) | plant injury at 500 ppm (sugar beet) | pest or weed control at 500 ppm (cocklebur) | pest or weed control at 500 ppm (jimsonweed) | pest or weed control at 500 ppm (annual morning glory) | pest or weed control at 500 ppm (pigweed) | pest or weed control at 500 ppm (velvetleaf) | plant injury at 500 ppm (corn) | plant injury at 500 ppm (rice [1]) | plant injury at 500 ppm (sorghum) | plant injury at 500 ppm (wheat) | pest or weed control at 500 ppm (barnyardgrass [2]) | pest or weed control at 500 ppm (crabgrass) | pest or weed control at 500 ppm (yellow foxtail) | pest or weed control at 500 ppm (johnson grass) | pest or weed control at 500 ppm (wild oats) | pest or weed control at 500 ppm (yellow nutsedge [3]) | pest or weed control at 2000 g/ha (rice [4]) | also measured |
| --- | --- | --- | --- | --- | --- | --- | --- | --- | --- | --- | --- | --- | --- | --- | --- | --- | --- | --- | --- | --- | --- |
| Cc1cc(C)n2nc(S(=O)(=O)Nc3ccccc3)nc2n1 [Compound 1] | 0% | 60% | 30% | 85% | 0% | 0% | 0% | 60% | 70% | 0% | 0% | 40% | 0% | 15% | 0% | 40% | 60% | 0% | 0% | 97% | pest or weed control at 2000 g/ha (barnyardgrass [5]): 95%; pest or weed control at 2000 g/ha (sprangletop): 90%; pest or weed control at 2000 g/ha (yellow nutsedge [6]): 70%; % NH4-N Remaining After 2 Weeks Incubation ([7]; 0.01 ppm): 0%; % NH4-N Remaining After 2 Weeks Incubation ([7]; 0.1 ppm): 0%; % NH4-N Remaining After 2 Weeks Incubation ([7]; 1 ppm): 35%; % NH4-N Remaining After 2 Weeks Incubation ([7]; 10 ppm): 75% |
| COc1ccccc1NS(=O)(=O)c1nc2nc(C)cc(C)n2n1 [Compound 4] | 10% | 40% | 40% | 70% | 40% | 60% | 0% | 0% | 60% | 0% | 40% | 40% | 0% | 0% | 20% | 0% | 80% | 0% | 0% | 90% | pest or weed control at 2000 g/ha (barnyardgrass [5]): 95%; pest or weed control at 2000 g/ha (sprangletop): 45%; pest or weed control at 2000 g/ha (yellow nutsedge [6]): 80%; % NH4-N Remaining After 2 Weeks Incubation ([7]; 0.01 ppm): 0%; % NH4-N Remaining After 2 Weeks Incubation ([7]; 0.1 ppm): 0%; % NH4-N Remaining After 2 Weeks Incubation ([7]; 1 ppm): 38%; % NH4-N Remaining After 2 Weeks Incubation ([7]; 10 ppm): 71% |
